According to patent US8901160B2, “Heparanase activity inhibitor” (Shiseido Company, Ltd., priority 2009, dated 2014):

Biological target: T1, heparanase (Homo sapiens, UniProt Q9Y251)
T1 construct: the supernatant was recovered as cell extract; endogenous in cells; host or cells: A431 cells (human epithelial carcinoma), Triton X-100 lysate supernatant
T1 sequence (Q9Y251 158-543 limits assumed): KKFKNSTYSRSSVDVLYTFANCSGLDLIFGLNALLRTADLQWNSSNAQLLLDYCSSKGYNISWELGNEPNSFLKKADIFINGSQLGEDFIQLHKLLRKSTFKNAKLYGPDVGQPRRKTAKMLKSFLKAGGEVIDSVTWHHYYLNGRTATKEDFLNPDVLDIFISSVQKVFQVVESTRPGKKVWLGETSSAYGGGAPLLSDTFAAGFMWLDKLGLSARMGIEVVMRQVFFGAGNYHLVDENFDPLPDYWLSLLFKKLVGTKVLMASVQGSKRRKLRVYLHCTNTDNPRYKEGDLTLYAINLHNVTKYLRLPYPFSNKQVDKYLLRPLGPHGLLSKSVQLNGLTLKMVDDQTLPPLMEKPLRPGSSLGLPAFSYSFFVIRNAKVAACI
T1 sequence (Q9Y251 36-109 limits assumed): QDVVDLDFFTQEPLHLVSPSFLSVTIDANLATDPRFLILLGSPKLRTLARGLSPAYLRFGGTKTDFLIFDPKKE
Assay: Evaluation based on heparanase activity inhibition rate (A431 cell extract, biotinylated heparan sulfate-immobilized plate)
Format: biochemical
Conditions: 37° C., 2 hours
Description: In the primary evaluation using heparanase activity as the index, as described in detail in the examples which follow, biotinylated heparan sulfate was immobilized in 96 wells, after which heparanase was allowed to act in the presence of a drug, and the amount of reduction in biotinylated heparan sulfate was used to evaluate the heparanase activity by the reaction with peroxidase-labeled avidin and coloration.
A431 cells (human epithelial carcinoma cells) were cultured in 10% serum-containing DMEM (Dulbecco's modified Eagle medium). The cultured cells were solubilized in lysis buffer (50 mM Tris, 0.5% TritonX-100, 0.15 M sodium chloride, pH 4.5) and collected with a scraper, and then pipetted and allowed to stand on ice for 30 minutes. This was followed by centrifugation at 10,000 rpm for 10 minutes to remove the insoluble portion, and the supernatant was recovered as cell extract. The amount of protein in the cell extract was measured with a BCA protein assay kit (BCA Protein Assay Kit, PIERCE, CA46141).
The A431 cell extract was then diluted to 500 μg/mL with assay buffer (50 mM HEPES, 50 mM sodium acetate, 150 mM sodium chloride, 9 mM calcium chloride, 0.1% BSA). […] After further rinsing 3 times with PBS-T, TMB reagent (BIO-RAD, 172-1066) was added at 100 μL/well and reacted therewith, the reaction was terminated with 1N sulfuric acid, and the absorbance at 475 nm (OD475) was measured.
Also, DMSO was added to a serial diluent prepared with the aforementioned A431 cell extract assay buffer (cell extract concentrations: 500 μg/mL, 50 μg/mL, 5 μg/mL, 0.5 μg/mL), to a final concentration of 5% without addition of the test compound, to obtain a mixture (solution for calibration curve). The solution for the calibration curve was subjected to the treatment of the same procedure described above, from seeding of the biotinylated heparan sulfate-immobilized plate, and the OD475 was measured. […]

| Heparanase inhibition rate (addition concentration 0.5%) [%] | Heparanase inhibition rate (addition concentration 0.05%) [%] | SMILES |
| --- | --- | --- |
| 99.95 | – | O=C1NCCN1 [2-Imidazolidinone, 2-imidazolidinone] |
| – | 99.00 | O=C1CCCN1CCO [1-(2-Hydroxyethyl)-2-pyrrolidone, 1-(2-hydroxyethyl)-2-pyrrolidone] |
| – | 99.40 | O=C1NCCN1CCO [1-(2-Hydroxyethyl)-2-imidazolidinone, 1-(2-hydroxyethyl)-2-imidazolidinone] |
